This note sets out measurements from article PMC8765783, “Identification of the potential active site of the septal peptidoglycan polymerase FtsW” (PLoS Genetics, 2022).

Common to all, as to test: fluorescence anisotropy
Format in all cases: binding
Common to all, as to details: 50 mM Hepes pH 7.5, 0.1 M NaCl, 0.005% DDM, 0.2% CHAPS, 21°C, 0.33 μM probe; labelled compound
On the technique in general: Polarisation of emitted light reports the rotation of a fluorescent probe.

Test [1] concerns the target T1, HisFtsW-FtsI(PBP3) complex (FtsW-FtsI/PBP3, "W 3") (Escherichia coli, UniProt P0ABG4).
T1 construct: His-tagged FtsW co-expressed with untagged FtsI/PBP3 from pDML2041 in E. coli C43(DE3); DDM-solubilised membranes, HisTrap, G25 desalting; tag kept; with Peptidoglycan D,D-transpeptidase FtsI
T1 sequence (P0ABG4 1-414): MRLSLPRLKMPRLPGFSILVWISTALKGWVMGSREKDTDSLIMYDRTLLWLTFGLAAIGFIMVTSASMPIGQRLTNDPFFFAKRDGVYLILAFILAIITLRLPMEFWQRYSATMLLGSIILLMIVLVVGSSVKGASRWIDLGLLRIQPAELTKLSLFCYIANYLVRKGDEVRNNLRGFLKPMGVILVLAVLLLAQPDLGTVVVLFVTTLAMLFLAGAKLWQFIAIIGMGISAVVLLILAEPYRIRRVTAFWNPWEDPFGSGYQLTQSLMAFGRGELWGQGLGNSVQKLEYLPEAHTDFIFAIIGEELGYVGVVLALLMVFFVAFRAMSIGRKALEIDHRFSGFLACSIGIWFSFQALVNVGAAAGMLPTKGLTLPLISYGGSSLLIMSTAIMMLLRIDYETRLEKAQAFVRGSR
T1 sequence (P0AD68 1-577 partner): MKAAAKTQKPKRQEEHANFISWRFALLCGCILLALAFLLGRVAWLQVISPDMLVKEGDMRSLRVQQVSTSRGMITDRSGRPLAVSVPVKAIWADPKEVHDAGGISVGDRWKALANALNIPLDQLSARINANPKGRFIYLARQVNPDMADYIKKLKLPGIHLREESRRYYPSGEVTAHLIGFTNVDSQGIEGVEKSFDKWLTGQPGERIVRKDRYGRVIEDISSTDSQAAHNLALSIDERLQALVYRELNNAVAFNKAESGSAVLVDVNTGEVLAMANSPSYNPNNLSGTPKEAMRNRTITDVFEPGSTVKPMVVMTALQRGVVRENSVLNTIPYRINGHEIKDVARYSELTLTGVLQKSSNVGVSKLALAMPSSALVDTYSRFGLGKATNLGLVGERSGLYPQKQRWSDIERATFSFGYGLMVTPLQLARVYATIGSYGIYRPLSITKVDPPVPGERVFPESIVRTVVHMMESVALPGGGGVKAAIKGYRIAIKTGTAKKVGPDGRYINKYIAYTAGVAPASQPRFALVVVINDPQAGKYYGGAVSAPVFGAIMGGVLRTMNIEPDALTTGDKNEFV

Test [2] concerns the target T2, HisFtsW-FtsI(PBP3) complex (FtsW-FtsI/PBP3, "W 3") (Escherichia coli, UniProt P0ABG4, A135T).
T2 construct: His-tagged FtsW co-expressed with untagged FtsI/PBP3 from pDML2041 in E. coli C43(DE3); DDM-solubilised membranes, HisTrap, G25 desalting; tag kept; with Peptidoglycan D,D-transpeptidase FtsI
T2 sequence (P0ABG4 1-414 A135T): T1 sequence (P0ABG4 1-414)
T2 sequence (P0AD68 1-577 partner): T1 sequence (P0AD68 1-577 partner)
An excerpt: (§1) fluorescence anisotropy on HisFtsW-FtsI(PBP3) complex (FtsW-FtsI/PBP3, "W 3")

Test [3] deals with T3, HisFtsW-FtsI(PBP3) complex (FtsW-FtsI/PBP3, "W 3") (Escherichia coli, UniProt P0ABG4, D297A).
T3 construct: His-tagged FtsW co-expressed with untagged FtsI/PBP3 from pDML2041 in E. coli C43(DE3); DDM-solubilised membranes, HisTrap, G25 desalting; tag kept; with Peptidoglycan D,D-transpeptidase FtsI
T3 sequence (P0ABG4 1-414 D297A): T1 sequence (P0ABG4 1-414)
T3 sequence (P0AD68 1-577 partner): T1 sequence (P0AD68 1-577 partner)
From the text: as §1

The target in test [4] is T4, HisFtsW-FtsI(PBP3) complex (FtsW-FtsI/PBP3, "W 3") (Escherichia coli, UniProt P0ABG4, G199A).
T4 construct: His-tagged FtsW co-expressed with untagged FtsI/PBP3 from pDML2041 in E. coli C43(DE3); DDM-solubilised membranes, HisTrap, G25 desalting; tag kept; with Peptidoglycan D,D-transpeptidase FtsI
T4 sequence (P0ABG4 1-414 G199A): T1 sequence (P0ABG4 1-414)
T4 sequence (P0AD68 1-577 partner): T1 sequence (P0AD68 1-577 partner)
From the text: as §1

The target of test [5] is T5, HisFtsW-FtsI(PBP3) complex (FtsW-FtsI/PBP3, "W 3") (Escherichia coli, UniProt P0ABG4, G371S).
T5 construct: His-tagged FtsW co-expressed with untagged FtsI/PBP3 from pDML2041 in E. coli C43(DE3); DDM-solubilised membranes, HisTrap, G25 desalting; tag kept; with Peptidoglycan D,D-transpeptidase FtsI
T5 sequence (P0ABG4 1-414 G371S): T1 sequence (P0ABG4 1-414)
T5 sequence (P0AD68 1-577 partner): T1 sequence (P0AD68 1-577 partner)
From the text: as §1

For test [6], the target named is T6, HisFtsW-FtsI(PBP3) complex (FtsW-FtsI/PBP3, "W 3") (Escherichia coli, UniProt P0ABG4, G381D).
T6 construct: His-tagged FtsW co-expressed with untagged FtsI/PBP3 from pDML2041 in E. coli C43(DE3); DDM-solubilised membranes, HisTrap, G25 desalting; tag kept; with Peptidoglycan D,D-transpeptidase FtsI
T6 sequence (P0ABG4 1-414 G381D): T1 sequence (P0ABG4 1-414)
T6 sequence (P0AD68 1-577 partner): T1 sequence (P0AD68 1-577 partner)
From the text: as §1

In test [7] the target is T7, HisFtsW-FtsI(PBP3) complex (FtsW-FtsI/PBP3, "W 3") (Escherichia coli, UniProt P0ABG4, P196T).
T7 construct: His-tagged FtsW co-expressed with untagged FtsI/PBP3 from pDML2041 in E. coli C43(DE3); DDM-solubilised membranes, HisTrap, G25 desalting; tag kept; with Peptidoglycan D,D-transpeptidase FtsI
T7 sequence (P0ABG4 1-414 P196T): T1 sequence (P0ABG4 1-414)
T7 sequence (P0AD68 1-577 partner): T1 sequence (P0AD68 1-577 partner)
From the text: as §1

Test [8] addresses T8, HisFtsW-FtsI(PBP3) complex (FtsW-FtsI/PBP3, "W 3") (Escherichia coli, UniProt P0ABG4, Q147E).
T8 construct: His-tagged FtsW co-expressed with untagged FtsI/PBP3 from pDML2041 in E. coli C43(DE3); DDM-solubilised membranes, HisTrap, G25 desalting; tag kept; with Peptidoglycan D,D-transpeptidase FtsI
T8 sequence (P0ABG4 1-414 Q147E): T1 sequence (P0ABG4 1-414)
T8 sequence (P0AD68 1-577 partner): T1 sequence (P0AD68 1-577 partner)
From the text: as §1

The target of test [9] is T9, HisFtsW-FtsI(PBP3) complex (FtsW-FtsI/PBP3, "W 3") (Escherichia coli, UniProt P0ABG4, R243L).
T9 construct: His-tagged FtsW co-expressed with untagged FtsI/PBP3 from pDML2041 in E. coli C43(DE3); DDM-solubilised membranes, HisTrap, G25 desalting; tag kept; with Peptidoglycan D,D-transpeptidase FtsI
T9 sequence (P0ABG4 1-414 R243L): T1 sequence (P0ABG4 1-414)
T9 sequence (P0AD68 1-577 partner): T1 sequence (P0AD68 1-577 partner)
From the text: as §1

The target in test [10] is T10, HisFtsW-FtsI(PBP3) complex (FtsW-FtsI/PBP3, "W 3") (Escherichia coli, UniProt P0ABG4, W138A).
T10 construct: His-tagged FtsW co-expressed with untagged FtsI/PBP3 from pDML2041 in E. coli C43(DE3); DDM-solubilised membranes, HisTrap, G25 desalting; tag kept; with Peptidoglycan D,D-transpeptidase FtsI
T10 sequence (P0ABG4 1-414 W138A): T1 sequence (P0ABG4 1-414)
T10 sequence (P0AD68 1-577 partner): T1 sequence (P0AD68 1-577 partner)
From the text: as §1

Test [11] deals with T11, HisFtsW-FtsI(PBP3) complex (FtsW-FtsI/PBP3, "W 3") (Escherichia coli, UniProt P0ABG4, Y242H).
T11 construct: His-tagged FtsW co-expressed with untagged FtsI/PBP3 from pDML2041 in E. coli C43(DE3); DDM-solubilised membranes, HisTrap, G25 desalting; tag kept; with Peptidoglycan D,D-transpeptidase FtsI
T11 sequence (P0ABG4 1-414 Y242H): T1 sequence (P0ABG4 1-414)
T11 sequence (P0AD68 1-577 partner): T1 sequence (P0AD68 1-577 partner)
From the text: as §1

Molecules are shown by their SMILES.

A word on the Kd: it is a measure of binding affinity in units of concentration. A high value points to lower affinity. For the compound `CC(=O)N[C@H]1[C@H](O[C@H]2[C@H](O[C@H](C)C(=O)N[C@@H](C)C(=O)N[C@H](CCC(=O)N[C@@H](CCCCNc3ccc([N+](=O)[O-])c4nonc34)C(=O)N[C@H](C)C(=O)N[C@H](C)C(=O)O)C(=O)O)[C@@H](NC(C)=O)[C@@H](OP(=O)(O)OP(=O)(O)OC/C=C(/C)CC/C=C(/C)CC/C=C(/C)CC/C=C(/C)CC/C=C(/C)CC/C=C(/C)CC/C=C(/C)CC/C=C(/C)CC/C=C(\C)CC/C=C(\C)CCC=C(C)C)O[C@@H]2CO)O[C@H](CO)[C@@H](O)[C@@H]1O` [NBD-lipid II], the Kd in [1] worked out at 130 nM; in test [2], 60 nM; in test [3], 90 nM; in test [4] it was 110 nM; in [5], 50 nM; in [6], 100 nM. In addition, the Kd came to 60 nM in test [7]; 70 nM in [8]; 70 nM in test [9]; 60 nM in test [10]; 40 nM in [11].
